Test [1] relates to RSV (Respiratory syncitial virus). The test is described as follows: Virucidal suspension test (EN14476), virus kill of RSV. In kind it is cell-based. The settings on record: contact time five minutes, clean conditions (bovine albumin). The procedure:
(§1) The virucidal activity of various test solutions were measured using the following protocol.
(§2) A standard EST protocol (EN14476) was followed for the evaluation of activity of antiviral actives in suspension test. Antiviral activity of actives was tested in clean conditions.
(§3) Clean conditions: To create clean conditions, 0.3 g of bovine albumin fraction V was dissolved in 100 ml of water and sterilised by passing the solution through a 0.2 μm filter).
(§4) Preparation of test mixture: To prepare the test mixture, 1 ml of interfering substance (Bovine Albumin) was pipetted into a suitable container, followed by addition of 1 ml of test virus suspension. To this, 8 ml of product test solution was added. At the end of chosen contact time period, 100 μl of the test mixture was added to resin column. Centrifugation of microspin column (735×g, 2 min). The elutant was diluted up to 10^−6 in ice cold virus growth medium. The infectivity of each dilution was measured by TCID50 using the Spaerman-Karber formula. Titration of Virus: Monolayers of cells were grown in 96-well tissue-culture plates (Costar) at 37° C. in an atmosphere of 95% air and 5% carbon dioxide (CO2). Tenfold dilutions of virus suspension were prepared in virus growth medium. One hundred microlitres of each dilution was added to five replicate wells in 96-well tissue-culture plates. Cell controls were included on each plate. Plates were incubated at 37° C. in an atmosphere of 95% air/5% CO2. Cultures were observed daily for viral cytopathic effect for a period of seven days after which they were discarded. The virus titre was calculated by TCID50 (Tissue culture infective dose) using the Spaerman-Karber formula.
(§5) Negative logarithm of the 50% end point=Negative logarithm of the highest virus concentration used−[(Sum of % affected at each dilution/100−0.5)×([…])]
Various compositions as shown in Table-2 were prepared and their virucidal activity was measured using the procedure given earlier. […]
Various compositions as shown in Table-5 were prepared and their virucidal activity was measured using the procedure given earlier. […]

The next test deals with FCV (Feline Calcivirus). The test is described as follows: Virucidal suspension test (EN14476), viral kill of FCV. The note with it: contact time five minutes, clean conditions (bovine albumin). It counts as cell-based, Feline Calicivirus. The procedure:
as §1, §2, §3, §4, §5
Various compositions as shown in Table-1 were prepared and their virucidal activity was measured using the procedure given earlier. […]
Various compositions as shown in Table-4 were prepared and their virucidal activity was measured using the procedure given earlier. […]

The subject of the next test is MS2 Phage. The test is described as follows: Virucidal suspension test (EN14476), virus kill of MS-2 bacteriophage. It counts as cell-based. The settings on record: contact time five minutes, clean conditions (bovine albumin), MS2 Phage control 6.36, Table 3. The protocol: as §1, §2, §3
Preparation of test mixture: To prepare the test mixture, 1 ml of interfering substance (Bovine Albumin) was pipetted into a suitable container, followed by addition of 1 ml of test virus suspension. To this, 8 ml of product test solution was added. At the end of chosen contact time period, 100 μl of the test mixture was added to resin column. Centrifugation of microspin column (735×g, 2 min). The elutant was diluted up to 10^−6 in ice cold virus growth medium. The infectivity of each dilution was measured by TCID50 using the Spaerman-Karber formula. Titration of Virus: Monolayers of cells were grown in 96-well tissue-culture plates (Costar) at 37° C. in an atmosphere of 95% air and 5% carbon dioxide (CO2). […] The virus titre was calculated by TCID50 (Tissue culture infective dose) using the Spaerman-Karber formula. […]
Various compositions as shown in Table-3 were prepared and their virucidal activity was measured using the procedure given earlier. […]

Turning to `COc1cc(/C=C/C(=O)CC(=O)/C=C/c2ccc(O)c(OC)c2)ccc1O` [Example 3, Curcumin], the “amount of virus remaining, Log TCID50/0.1 ml” value in test [1] (RSV Control 5.00, Table 2) is 4.65 Log TCID50/0.1 ml; in the test with FCV (Feline Calcivirus) (FCV Control 4.50, Table 1) it was 3.40 Log TCID50/0.1 ml.

As for benzalkonium chloride [Example 2], the “amount of virus remaining, Log TCID50/0.1 ml” value in test [1] (RSV Control 5.00, Table 2) was found to be 2.50 Log TCID50/0.1 ml; in the test on FCV (Feline Calcivirus) (FCV Control 4.50, Table 1), 3.25 Log TCID50/0.1 ml.

For benzalkonium chloride [Example 10], the “amount of virus remaining, Log TCID50/0.1 ml” value in the test on MS2 Phage was 1.94 Log TCID50/0.1 ml; in test [1] (RSV Control 4.70, Table 5) it was 3.90 Log TCID50/0.1 ml; in the test on FCV (Feline Calcivirus) (FCV Control 5.50, Table 4), 3.10 Log TCID50/0.1 ml.

(Values after patent US20130316027A1, “ANTIMICROBIAL COMPOSITION” (priority 2011, published 2013).)
